Measured values from patent publication US20250161212A1, “LIQUID PHARMACEUTICAL FORMULATION OF OMEPRAZOLE OR ESOMEPRAZOLE” (ALKALOID AD SKOPJE, priority 2022, published 2025).

Assay: Stability study of esomeprazole sodium dissolved in DMSO stored at 25° C. (impurities)
Format: physicochemical
Procedure: Example 9—Stability Study Stability results for esomeprazole sodium dissolved in DMSO stored at 25° C.: • Key: • Imp D: omeprazole impurity D: [drawing 3] • RRT: Relative retention time.

[1] = 1.5 months, second table, Imp-s > 0.02%
[2] = 3 months, second table, Imp-s > 0.02%
[3] = 5 months, second table, Imp-s > 0.02%
[4] = 9 months, second table, Imp-s > 0.02%
[5] = 13 months, second table, Imp-s > 0.02%
[6] = Initial, second table, Imp-s > 0.02%
[7] = in DMSO, 25° C., 1.5 months, first table
[8] = in DMSO, 25° C., 5 months, first table
[9] = in DMSO, 25° C., Initial, first table

## COc1ccc2nc([S@@+]([O-])Cc3ncc(C)c(OC)c3C)[nH]c2c1 (single isomer, unassigned) [esomeprazole sodium]
1.5 months, second table
  Total impurities: 0.14%
[1]
  Imp D (omeprazole impurity D): 0.03%
  impurity RRT 1.23: 0.03%
3 months, second table
  Total impurities: 0.17%
[2]
  Imp D (omeprazole impurity D): 0.03%
  impurity RRT 1.23: 0.03%
5 months, second table
  Total impurities: 0.16%
[3]
  Imp D (omeprazole impurity D): 0.03%
  impurity RRT 1.17: 0.03%
9 months, second table
  Total impurities: 0.25%
[4]
  Imp D (omeprazole impurity D): 0.03%
  impurity RRT 0.53: 0.03%
  impurity RRT 1.23: 0.03%
  impurity RRT 1.31: 0.03%
13 months, second table
  Total impurities: 0.36%
[5]
  Imp D (omeprazole impurity D): 0.03%
  impurity RRT 0.54: 0.04%
  impurity RRT 0.90: 0.04%
  impurity RRT 1.23: 0.03%
  impurity RRT 1.31: 0.04%
  impurity RRT 1.32: 0.03%
Initial, second table
  Total impurities: 0.12%
[6]
  Imp D (omeprazole impurity D): 0.03%
  impurity RRT 1.23: 0.03%
[7]
  Imp D (omeprazole impurity D): Imp D = 0.03%
  Total impurities: Total = 0.14%
  impurity RRT 1.23: RRT 1.23 = 0.03%
[8]
  Imp D (omeprazole impurity D): Imp D = 0.03%
  Total impurities: Total = 0.15%
  impurity RRT 0.57: RRT 0.57 = 0.02%
  impurity RRT 1.14: RRT 1.14 = 0.02%
  impurity RRT 1.17: RRT 1.17 = 0.03%
  impurity RRT 1.23: RRT 1.23 = 0.02%
[9]
  Imp D (omeprazole impurity D): Imp D = 0.03%
  Total impurities: Total = 0.12%
  impurity RRT 1.19: RRT 1.19 = 0.02%
  impurity RRT 1.23: RRT 1.23 = 0.03%
